Converted amounts (≈) assume the structure as drawn.
Key:
KB = experiment: Cytotoxicity against human KB cells; type: functional, cell-based
L1210 = experiment: Cytotoxicity against mouse L1210 cells; type: functional, cell-based

Compound | IC50 (KB) [ng/mL] | IC50 (L1210) [ng/mL]
COC(CC1OC(=O)CC(O)C/C=C/C(=O)C(C)C(OC)c2coc(n2)-c2coc(n2)-c2coc(n2)/C=C/CCC1C)C(C)CCC(=O)C(C)C(OC)C(C)/C=C/N(C)C=O (stereo unspecified) [JASPISAMIDE C] | 13 (≈ 15.3 nM) | < 1
COC(CC1OC(=O)CC(O)C/C=C/C(=O)C(C)C(OC)c2coc(n2)-c2coc(n2)-c2coc(n2)/C=C/CC(O)C1C)C(C)CCC(=O)C(C)C(C/C=C/N(C)C=O)OC (stereo unspecified) [JASPISAMIDE B] | 6 (≈ 7.03 nM) | < 1
COC(CC1OC(=O)CC(O)CC(O)CC(=O)C(C)C(OC)c2coc(n2)-c2coc(n2)-c2coc(n2)/C=C/CCC1C)C(C)CCC(=O)C(C)C(C/C=C/N(C)C=O)OC (stereo unspecified) [JASPISAMIDE A] | 15 (≈ 17.5 nM) | < 1
